In data set [1] the test system is microvessels in PlGF-containing Matrigel plugs. As to the kind of experiment: Matrigel basement membrane plug angiogenesis assay. The settings on record: PlGF-containing implants ± BP1, s.c.; PBS controls 16.2±11.4. The format is in vivo, nude mice. The source says: To further investigate the effect of PlGF binding peptides on endothelial cell migration and angiogenesis, Matrigel basement membrane plugs containing PlGF, BP1, BP2, or PBS were implanted s.c. on the flanks of nude mice. The number of interior microvessels in the PBS controls was 16.2±11.4/mm^2. PlGF-only implants contained 28.9±17.2/mm^2 (1.8-fold vs. mock-treated implants), and implants with PlGF and BP1 contained only 12.3±13.0 microvessels/mm^2 (P<0.02).

Data set [2] deals with PlGF-mediated angiogenesis in corneal tissues. As to the kind of experiment: Mouse corneal micropocket angiogenesis assay. In kind it is in vivo, C57B16/J mice. The note with it: micropellets, 100 ng PlGF with 1 μM peptide, day 5. As for the experimental part:
The ability of PlGF ligands to block PlGF-mediated angiogenesis in corneal tissues in vivo is investigated. Corneal micropockets are created using a modified von Graefe cataract knife in both eyes of male 5-6-wk-old C57B16/J mice. Micropellets comprised of a sustained release formulation of polyglucuronic acid/polylactic acid containing 100 ng of PlGF or PlGF with 1 μM BP-1, BP-2, BP-3 or BP-4 are implanted into each corneal pocket. Eyes are examined by a slit-lamp biomicroscope on day 5 after pellet implantation. Vessel length and neovascularization are measured.

A further data set concerns MCF-7. Nature of the data set: Matrigel cell invasion assay, MCF-7. The format is cell-based, human. The note with it: 48 h. The method, then: (§1) Cellular invasion was determined by addition of 5×10^4cells to growth factor-reduced Matrigel invasion chambers (BD Biosciences Discovery Labware, Bedford, Mass.) (Taylor et al., 2003b; Passaniti et al., 1992, Lab Invest 67, 519-528). Additives to the Matrigel® plugs were pre-incubated together in a total volume of 100 μl PBS at RT for 10 min, after which each additive was added to the Matrigel. Growth factors (2.0 or 0.2 nM), peptide (2 μg/ml), or antibody (1 μg/ml) were added to cells in low serum (0.1% fetal bovine serum [FBS]) medium. Baseline and chemoattractant-based invasion (10% FBS) were included. The number of invading cells was determined by counting the number of cells on the bottom of the invasion chamber membrane after staining at 100× magnification after 24 h (MDA-MB-231) or 48 h (MCF-7, MDA-MB-468). The results of three to five separate experiments are presented.

A further data set deals with T1, VEGF165 (Homo sapiens, UniProt P15692).
T1 construct: purchased R&D Systems
T1 sequence (P15692 27-191 isoform P15692-4): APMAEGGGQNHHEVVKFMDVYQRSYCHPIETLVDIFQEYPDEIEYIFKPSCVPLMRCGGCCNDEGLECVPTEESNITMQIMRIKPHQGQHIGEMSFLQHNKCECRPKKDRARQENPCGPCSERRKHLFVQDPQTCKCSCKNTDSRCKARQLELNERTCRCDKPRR
Nature of the data set: Free peptide binding ELISA (FLAG epitope probe), VEGF-coated wells. As for the experimental part: (§2) Competition assays were done with 2.5 or 25 U/ml heparin (Sigma, St. Louis, Mo.). BP1, 3, 4, and a scrambled version of BP3 (scrBP3) were synthesized with a linker followed by the FLAG epitope ([…] SEQ ID NO:5) at the C-terminus. Thirty minutes after addition of the first reagent, the second reagent was added, followed by another 30 minute incubation. Peptide binding was assessed by probing for the FLAG epitope (Prickett et al., Biotechniques 7:580-9, 1989; Castrucci et al., J. Virol. 66:4647-53, 1992). Absorbance was read at 490 nm.

The subject of a further data set is MDA-MB-231 mfp tumor. As to the kind of experiment: Orthotopic mammary fat pad (mfp) MDA-MB-231 model. In kind it is in vivo, SCID mice. The source says: MDA-MB-231, grown in tissue culture, was also implanted in the mammary fat pad (mfp) of SCID mice (3×10^6 cells, 4-5 mice/group). In this model, large pulmonary metastases are less likely to develop (Richert et al., Breast Cancer Res. 7:R819-27, 2005). Peptide treatment was commenced on day 5 after implantation, when small tumors were palpable in all mice (8 treatments). Three days after the final peptide treatment, tumors were removed and weighed. Lungs were harvested and examined microscopically for metastases, as described above.

A further data set deals with T2, PlGF (Homo sapiens, UniProt P49763).
T2 construct: purchased R&D Systems
T2 sequence (P49763 19-170 isoform P49763-3 limits assumed): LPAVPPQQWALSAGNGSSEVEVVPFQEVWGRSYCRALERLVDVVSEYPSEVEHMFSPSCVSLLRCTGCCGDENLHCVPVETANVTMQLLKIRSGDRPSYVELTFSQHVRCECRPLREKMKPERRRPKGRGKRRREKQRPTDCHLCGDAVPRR
Nature of the data set: Free peptide binding ELISA (FLAG epitope probe), PlGF-coated wells. The settings on record: peptide with C-terminal FLAG epitope. The method, then: as §2

In data set [3] the test system is MCF-7 human breast cancer cells. The format is cell-based. The settings on record: human, 24 h, 2 μM. The method, then: MTT (3-(4,5-dimethylthiazolyl-2)-2,5-diphenyltetrazolium bromide, Sigma) assays were performed under conditions of low serum (1%) to determine PlGF effects on cell viability, the toxicity of the peptides, and their effect on PlGF-mediated breast tumor cell growth (Mosmann, 1983, J Immunol Meth 65:55-63; Modrak et al., 2000, Biochem Biophys Res Commun 268:603-606). Peptide concentration was 1-2 μM, and the concentration of exogenous PlGF was 2 nM. The human breast tumor lines tested were: MDA-MB-231, MDA-MB-468 and MCF-7 (ATCC, Mannasses, Va.). Briefly, 96-well plates were seeded with 5-10×10^4 cells/ml in medium containing 1% fetal bovine serum (FBS). After 24 h, cells were treated with individual peptides at a concentration of 1-2 μM (4 binding peptides), in quadruplicate, and/or rhuPlGF at a 2-nM concentration. After the designated time points, 0.5 mg/ml MTT (5 mg/ml stock diluted 1:10 in RPMI medium with no serum) was added to the wells (Mosmann, 1983). When purple crystals were clearly visible in the cells, and the plate appeared to be fully developed, the reaction was terminated with acid alcohol (0.04M HCl in isopropanol). Absorbance of the dissolved crystals was read at 570 nm. The 24-h time point was chosen because the in vitro effects of PlGF on tumor cell migration were measurable at this time (see wound-healing assay below). These assays were also performed using medium with 10% FBS, with similar results.

A further data set has as its system MDA-MB-468. As to the kind of experiment: Matrigel cell invasion assay, MDA-MB-468. The format is cell-based, human. The settings on record: 48 h. As for the experimental part: as §1

Ends that are not written are not given here.

With SHRYRLAIQLHASDSSSSCV [BP1], in data set [1], the interior microvessels is 12.3±13.0 /mm^2. Also, in data set [2], the “effect on PlGF mediated angiogenesis in corneal tissues” value is “inhibits”. Also, the “Average fold-change in the number of cells on the membrane compared to untreated controls” value with MCF-7 (PlGF 0.2 nM ± peptide 2 μg/ml) is reported as 0.3 ± 0.0 fold; with MCF-7 (peptide 2 μg/ml alone) it was 0.7 ± 0.4 fold; with MDA-MB-468 (PlGF 0.2 nM ± peptide 2 μg/ml), 0.6 ± 0.4 fold; in the data set with MDA-MB-468 (peptide 2 μg/ml alone), 1.2 ± 0.3 fold. The “binding to VEGF (in words)” value on VEGF165 (ELISA-based binding assay) is recorded as “No measurable binding”. Also, on VEGF165 (peptide with C-terminal FLAG epitope), the “binding to VEGF165 (A490)” value was found to be 0.299±0.174. Also, the tumor weight in the data set on MDA-MB-231 mfp tumor (8 peptide treatments, mock-treated 0.423±0.089) turned out to be 0.345 ± 0.095 g. This sequence registered a reduction in metastases with MDA-MB-231 mfp tumor (lung micrometastases) of 82%. Further, in the data set with MDA-MB-231 mfp tumor (lung, mock-treated 3.4±1.9), the “micrometastasis counts per mouse” value was found to be 0.6±0.5. In the data set with MDA-MB-231 mfp tumor (vs mock-treated, did not reach statistical significance), the “decrease in tumor weight” value stood at 23%. At PlGF, the “binding to PlGF (A490)” value came out at 0.100±0.058. In data set [3], the “viability lowered, peptide alone” value is 21%.

(Values after patent US7642239B2, “Inhibition of placenta growth factor (PLGF) mediated metastasis and/or angiogenesis” (Center for Molecular Medicine and Immunology, priority 2005, dated 2010).)
